This is an account of results in patent US20240034736A1, “HSD17B13 INHIBITORS AND USES THEREOF” (FL2022-001, Inc., priority 2020, published 2024).

Sequence of Recombinant human HSD17B13 enzyme (Q7Z5P4 20-300): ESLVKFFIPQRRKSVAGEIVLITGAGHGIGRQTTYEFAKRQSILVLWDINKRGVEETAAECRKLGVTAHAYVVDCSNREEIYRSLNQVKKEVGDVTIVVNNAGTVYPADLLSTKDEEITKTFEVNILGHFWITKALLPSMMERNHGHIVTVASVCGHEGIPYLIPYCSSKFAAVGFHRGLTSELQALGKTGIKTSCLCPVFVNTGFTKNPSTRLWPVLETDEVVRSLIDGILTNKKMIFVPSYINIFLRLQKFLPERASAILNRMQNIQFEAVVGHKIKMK

The target in the experiment is Recombinant human HSD17B13 enzyme (Homo sapiens (Human), UniProt Q7Z5P4). In words: HSD17b13 NAD(P)H-Glo Biochemical Assay. To be noted: 50 uM estradiol, 1 mM NAD+; read-out: HSD17β13 IC50. The method, then:
Recombinant human HSD17B13 enzyme. Substrate: estradiol (Sigma β-Estradiol E8875), 100 mM in DMSO. […] Assay buffer final concentration: 20 mM Tris pH7.4 with 0.002% Tween-20 and 0.02% BSA. […] Enzymatic activity detected by NAD(P)H-Glo™ Detection System (Promega G9062).
Inhibitor compounds were serially diluted in DMSO and then further diluted in assay buffer to a 10× concentration consisting of 1% DMSO.
HSD17b13 enzyme was diluted in 1× assay buffer to the desired enzyme concentration based on the specific activity of the enzyme lot. 20 uL of diluted enzyme was added to each well along with 2.5 uL of 10× inhibitor solution. Assay plate was incubated at RT for 20 minutes, and then 2.5 uL of a 10× substrate/cofactor mix was added to each well for a final concentration of 50 uM estradiol and 1 mMNAD+. Assay plate was incubated at 37° C. for 3 hours. NAD(P)H-Glo™ Detection System reagents were prepared according to manufacturer's specifications, and 25 uL was added to each well. After incubating for 1 hour at RT, luminescence was measured.
With `Oc1cc(-n2ncc3cc(-c4ccc(O)c(Cl)c4)cnc32)ccc1F` [Compound 8.01, 2-Chloro-4-(1-(4-fluoro-3-hydroxyphenyl)-1H-pyrazolo[3,4-b]pyridine-5-yl)phenol], the IC50 – broadly, the concentration that gives 50% inhibition – lay within 100 to 1000 nM. Take `Oc1cc(-n2ncc3cc(-c4ccc(O)c(Cl)c4)ccc32)c(F)cc1F` [Compound 8.02, 5-(5-(3-Chloro-4-hydroxyphenyl)-1H-indazol-1-yl)-2,4-difluorophenol]: the IC50 is 100 to 1000 nM. As for `Oc1cc(-n2ncc3nc(-c4ccc(O)c(Cl)c4)ccc32)ccc1F` [Compound 8.03, 2-Chloro-4-(1-(4-fluoro-3-hydroxyphenyl)-1H-pyrazolo[4,3-b]pyridine-5-yl)phenol], the figure is 1000 to 30000 nM. The same measure for `Nc1ccc(-c2ccc3c(cnn3-c3ccc(F)c(O)c3)c2)c(Cl)c1` [Compound 9, 5-(5-(4-Amino-2-chlorophenyl)-1H-indazol-1-yl)-2-fluorophenol]: 100 to 1000 nM. For the molecule `CS(=O)(=O)Nc1ccc(-c2ccc3c(cnn3-c3ccc(F)c(O)c3)c2)c(Cl)c1` [Compound 10, N-(3-Chloro-4-(1-(4-fluoro-3-hydroxyphenyl)-1H-indazol-5-yl)phenyl)methanesulfonamide], the IC50 lay within 100 to 1000 nM.

For `CC(C)S(=O)(=O)Nc1ccc(-c2ccc3c(cnn3-c3ccc(F)c(O)c3)c2)cc1` [Compound 11, N-(4-(1-(4-Fluoro-3-hydroxyphenyl)-1H-indazol-5-yl)phenyl)propane-2-sulfonamide], the IC50 lay in the range of 100 to 1000 nM. Regarding `O=S(=O)(Nc1ccc(-c2ccc3c(cnn3-c3ccc(F)c(O)c3)c2)cc1)c1ccccc1` [Compound 11.01, N-(4-(1-(4-Fluoro-3-hydroxyphenyl)-1H-indazol-5-yl)phenyl)benzenesulfonamide], the IC50 is 100 to 1000 nM.

For `CS(=O)(=O)Nc1ccc(-c2ccc3c(cnn3-c3ccc(F)c(O)c3)c2)cn1` [Compound 11.02, N-(5-(1-(4-Fluoro-3-hydroxyphenyl)-1H-indazol-5-yl)pyridine-2-yl)methanesulfonamide], the IC50 lay in the range of 1000 to 30000 nM. Turning to `O=C(O)c1ccc(-c2ccc3c(cnn3-c3ccc(F)c(O)c3)c2)c(Cl)c1` [Compound 12, 3-Chloro-4-(1-(4-Fluoro-3-hydroxyphenyl)-1H-indazol-5-yl)benzoic acid], the IC50 lay within 1000 to 30000 nM.

Consider `NC(=O)c1ccc(-c2ccc3c(cnn3-c3ccc(F)c(O)c3)c2)c(Cl)c1` [Compound 13, 3-Chloro-4-(1-(4-fluoro-3-hydroxyphenyl)-1H-indazol-5-yl)benzamide], for which the IC50 lay within 100 to 1000 nM.

On to `CN(C)C(=O)c1nn(-c2ccc(F)c(O)c2)c2ccc(-c3ccc(O)c(Cl)c3)cc12` [Compound 14, 5-(3-Chloro-4-hydroxyphenyl)-1-(4-fluoro-3-hydroxyphenyl)-N,N-dimethyl-1H-indazole-3-carboxamide], for which the IC50 lay within 100 to 1000 nM. Turning to `O=C(O)CCOc1ccc(-c2ccc3c(cnn3-c3ccc(F)c(O)c3)c2)cc1` [Compound 15, 3-(4-(1-(4-Fluoro-3-hydroxyphenyl)-1H-indazol-5-yl)phenoxy)propanoic acid], the IC50 lay in the range of 1000 to 30000 nM.

In the case of `Oc1ccc(-c2ccc3c(cnn3-c3cc(O)c(F)c(F)c3)c2)nc1` [Compound 16, 6-(1-(3,4-Difluoro-5-hydroxyphenyl)-1H-indazol-5-yl)pyridine-3-ol], the IC50 was 1000 to 30000 nM. Regarding `Oc1cnc(-c2ccc3c(cnn3-c3cc(O)c(F)c(F)c3)c2)c(Cl)c1` [Compound 16.01, 5-Chloro-6-(1-(3,4-difluoro-5-hydroxyphenyl)-1H-indazol-5-yl)pyridine-3-ol], the IC50 is 100 to 1000 nM.

`Oc1cnc(-c2ccc3c(cnn3-c3cc(O)c(F)c(F)c3)c2)nc1` [Compound 16.02, 2-(1-(3,4-Difluoro-5-hydroxyphenyl)-1H-indazol-5-yl)pyrimidin-5-ol]: the IC50 fell in the range of 1000 to 30000 nM.

As for `Oc1ccc(-c2ccc3c(cnn3-c3cc(O)c(F)c(F)c3)c2)cn1` [Compound 16.03, 5-(1-(3,4-Difluoro-5-hydroxyphenyl)-1H-indazol-5-yl)pyridine-2-ol], the IC50 is 100 to 1000 nM. As for `Oc1cncc(-n2ncc3cc(-c4ccc(O)c(Cl)c4)ccc32)c1` [Compound 17, 5-(5-(3-Chloro-4-hydroxyphenyl)-1H-indazol-1-yl)pyridin-3-ol], the figure is 100 to 1000 nM; as for `CC1(C)CC=C(c2cc3cnn(-c4cc(O)c(F)c(C(F)(F)F)c4)c3cc2F)CC1` [Compound 18, 5-(5-(4,4-Dimethylcyclohex-1-en-1-yl)-6-fluoro-1H-indazol-1-yl)-2-fluoro-3-(trifluoromethyl)phenol], 100 to 1000 nM.

For `CC1(C)CC=C(c2ccc3c(cnn3-c3cc(O)c(F)c(C(F)(F)F)c3)c2)CC1` [Compound 18.01, 5-(5-(4,4-Dimethylcyclohex-1-en-1-yl)-1H-indazol-1-yl)-2-fluoro-3-(trifluoromethyl)phenol], the IC50 lay in the range of 100 to 1000 nM. For `CC1(C)CC=C(c2ccc3nn(-c4cc(O)c(F)c(C(F)(F)F)c4)cc3c2)CC1` [Compound 18.02, 5-(5-(4,4-Dimethylcyclohex-1-en-1-yl)-2H-indazol-2-yl)-2-fluoro-3-(trifluoromethyl)phenol], the IC50 is 100 to 1000 nM. For the molecule `CS(=O)(=O)N1CCN(c2cc3cnn(-c4cc(O)c(F)c(C(F)(F)F)c4)c3cc2Cl)CC1` [Compound 19, 5-(6-Chloro-5-(4-(methylsulfonyl)piperazin-1-yl)-1H-indazol-1-yl)-2-fluoro-3-(trifluoromethyl)phenol], the IC50 was less than 100 nM.

With `CS(=O)(=O)N1CCN(c2cc3cnn(-c4cc(O)c(F)c(C(F)(F)F)c4)c3cc2F)CC1` [Compound 19.01, 2-Fluoro-5-(6-fluoro-5-(4-(methylsulfonyl)piperazin-1-yl)-1H-indazol-1-yl)-3-(trifluoromethyl)phenol], the IC50 lay in the range of 100 to 1000 nM. As to `CS(=O)(=O)N1CCN(c2cc3cnn(-c4cc(O)c(F)c(Cl)c4)c3cc2F)CC1` [Compound 19.02, 3-Chloro-2-fluoro-5-(6-fluoro-5-(4-(methylsulfonyl)piperazin-1-yl)-1H-indazol-1-yl)phenol], the IC50 was 100 to 1000 nM.

Turning to `CS(=O)(=O)N1CCN(c2cc3cnn(-c4ccc(Cl)c(O)c4F)c3cc2F)CC1` [Compound 19.03, 6-Chloro-2-fluoro-3-(6-fluoro-5-(4-(methylsulfonyl)piperazin-1-yl)-1H-indazol-1-yl)phenol], the IC50 lay in the range of 100 to 1000 nM. Take `CC1(C)CN(S(C)(=O)=O)CCN1c1cc2cnn(-c3cc(O)c(F)c(C(F)(F)F)c3)c2cn1` [Compound 19.04, 5-(5-(2,2-Dimethyl-4-(methylsulfonyl)piperazin-1-yl)-1H-pyrazolo[3,4-c]pyridine-1-yl)-2-fluoro-3-(trifluoromethyl)phenol]: the IC50 is 100 to 1000 nM. As for `CC1(C)CN(S(C)(=O)=O)CCN1c1cc2cn(-c3cc(O)c(F)c(C(F)(F)F)c3)nc2cn1` [Compound 19.05, 5-(5-(2,2-Dimethyl-4-(methylsulfonyl)piperazin-1-yl)-2H-pyrazolo[3,4-c]pyridine-2-yl)-2-fluoro-3-(trifluoromethyl)phenol], the figure is 100 to 1000 nM; as for `CS(=O)(=O)N1CCN(c2cc3cnn(-c4cc(C(F)(F)F)cc(O)c4F)c3cn2)CC1` [Compound 19.06, 2-Fluoro-3-(5-(4-(methylsulfonyl)piperazin-1-yl)-1H-pyrazolo[3,4-c]pyridine-1-yl)-5-(trifluoromethyl)phenol], 100 to 1000 nM.

Consider `CS(=O)(=O)N1CCN(c2cc3cnn(-c4ccc(F)c(O)c4F)c3cn2)CC1` [Compound 19.07, 2,6-Difluoro-3-(5-(4-(methylsulfonyl)piperazin-1-yl)-1H-pyrazolo[3,4-c]pyridine-1-yl)phenol], for which the IC50 lay in the range of 100 to 1000 nM.

For `CS(=O)(=O)N1CCN(c2cc3cn(-c4ccc(F)c(O)c4F)nc3cn2)CC1` [Compound 19.08, 2,6-Difluoro-3-(5-(4-(methylsulfonyl)piperazin-1-yl)-2H-pyrazolo[3,4-c]pyridine-2-yl)phenol], the IC50 lay in the range of 1000 to 30000 nM. As for `CS(=O)(=O)N1CCN(c2cc3cnn(-c4ccc(F)c(O)c4)c3cn2)CC1` [Compound 19.09, 2-Fluoro-5-(5-(4-(methylsulfonyl)piperazin-1-yl)-1H-pyrazolo[3,4-c]pyridine-1-yl)phenol], the figure is 1000 to 30000 nM; as for `CS(=O)(=O)N1CCN(c2cc3cn(-c4ccc(F)c(O)c4)nc3cn2)CC1` [Compound 19.10, 2-Fluoro-5-(5-(4-(methylsulfonyl)piperazin-1-yl)-2H-pyrazolo[3,4-c]pyridine-2-yl)phenol], 1000 to 30000 nM; as for `CS(=O)(=O)N1CCN(c2cc3cnn(-c4cccc(O)c4F)c3cn2)CC1` [Compound 19.11, 2-Fluoro-3-(5-(4-(methylsulfonyl)piperazin-1-yl)-1H-pyrazolo[3,4-c]pyridine-1-yl)phenol], 1000 to 30000 nM. As for `CS(=O)(=O)N1CCN(c2cc3cnn(-c4cc(O)cc(OC(F)(F)F)c4)c3cn2)CC1` [Compound 19.12, 3-(5-(4-(Methylsulfonyl)piperazin-1-yl)-1H-pyrazolo[3,4-c]pyridine-1-yl)-5-(trifluoromethoxy)phenol], the figure is 1000 to 30000 nM; as for `CS(=O)(=O)N1CCN(c2cc3cn(-c4cc(O)cc(OC(F)(F)F)c4)nc3cn2)CC1` [Compound 19.13, 3-(5-(4-(Methylsulfonyl)piperazin-1-yl)-2H-pyrazolo[3,4-c]pyridin-2-yl)-5-(trifluoromethoxy)phenol], 1000 to 30000 nM.

For the molecule `CS(=O)(=O)N1CCN(c2cc3cnn(-c4ccc(Cl)c(O)c4)c3cn2)CC1` [Compound 19.14, 2-Chloro-5-(5-(4-(methylsulfonyl)piperazin-1-yl)-1H-pyrazolo[3,4-c]pyridine-1-yl)phenol], the IC50 lay in the range of 1000 to 30000 nM.
